The values that follow are results of earlier work, collected in publication PMC13021292, “Safety, tolerability and pharmacokinetics of DNDI‐6148, a novel agent for leishmaniasis: A randomized, controlled, single ascending dose study in healthy participants” (British Journal of Clinical Pharmacology, 2025).

On the set-up of the series: method as in earlier work. The following applies: cited from earlier work.

As to `CC1(C)OB(O)c2cc(NC(=O)c3ccc(F)cc3C(F)(F)F)ccc21` [acoziborole], the “metabolism and elimination in humans” value is “slow liver metabolism and predominant hepato‐biliary elimination”.
